For one series, the system named is rat corpora cavernosa. The series is described as follows: Pharmacodynamic test: intracavernous pressure on electric stimulation of the cavernous nerve. The note with it: anesthetized male SD rats, 5 mg/kg orally, ratio of ICP to MBp. The series is classed as in vivo. As to the method: The test was carried out based on the methods reported (International Journal of Impotence Research 2002, 14, 251 and The Journal of Urology 1992, 147, 1124). After fasted for 12 hours, 4 male SD rats were randomized into each group. After anesthetizing the rats with sodium pentobarbital (50 mg/kg, i.p.), the penile skin was incised and the prepuce was degloved to expose completely the corpora cavernosa (CC). A needle linked to an electrophysiology instrument was inserted into the CC on the right side in order to measure the intracavernous pressure (ICP). The right carotid artery was cannulated in a similar manner to the polyethylene tube in order to monitor the mean blood pressure (MBp) continuously. […] Electric stimulation was performed at 2 Hz, for 60 s with a pulse duration of 5 ms and 3V using a stimulator. The compounds were administrated orally (5 mg/kg). The change of the ICP and MBp were monitored continuously before and after the administration. The effect of the compounds on the erection induced by electric stimulation was evaluated by the ratio of ICP to MBp. The parameter (ICP/MBp) was used to estimate the influence of the compounds to the rat corpora cavernosa. […] The statistical significance of the differences between groups was calculated using Duncan's multiple comparison.

Another series deals with T1, PDE3 (Homo sapiens, UniProt Q14432).
T1 construct: from tissue; host or cells: human platelets
T1 sequence (Q14432 whole entry): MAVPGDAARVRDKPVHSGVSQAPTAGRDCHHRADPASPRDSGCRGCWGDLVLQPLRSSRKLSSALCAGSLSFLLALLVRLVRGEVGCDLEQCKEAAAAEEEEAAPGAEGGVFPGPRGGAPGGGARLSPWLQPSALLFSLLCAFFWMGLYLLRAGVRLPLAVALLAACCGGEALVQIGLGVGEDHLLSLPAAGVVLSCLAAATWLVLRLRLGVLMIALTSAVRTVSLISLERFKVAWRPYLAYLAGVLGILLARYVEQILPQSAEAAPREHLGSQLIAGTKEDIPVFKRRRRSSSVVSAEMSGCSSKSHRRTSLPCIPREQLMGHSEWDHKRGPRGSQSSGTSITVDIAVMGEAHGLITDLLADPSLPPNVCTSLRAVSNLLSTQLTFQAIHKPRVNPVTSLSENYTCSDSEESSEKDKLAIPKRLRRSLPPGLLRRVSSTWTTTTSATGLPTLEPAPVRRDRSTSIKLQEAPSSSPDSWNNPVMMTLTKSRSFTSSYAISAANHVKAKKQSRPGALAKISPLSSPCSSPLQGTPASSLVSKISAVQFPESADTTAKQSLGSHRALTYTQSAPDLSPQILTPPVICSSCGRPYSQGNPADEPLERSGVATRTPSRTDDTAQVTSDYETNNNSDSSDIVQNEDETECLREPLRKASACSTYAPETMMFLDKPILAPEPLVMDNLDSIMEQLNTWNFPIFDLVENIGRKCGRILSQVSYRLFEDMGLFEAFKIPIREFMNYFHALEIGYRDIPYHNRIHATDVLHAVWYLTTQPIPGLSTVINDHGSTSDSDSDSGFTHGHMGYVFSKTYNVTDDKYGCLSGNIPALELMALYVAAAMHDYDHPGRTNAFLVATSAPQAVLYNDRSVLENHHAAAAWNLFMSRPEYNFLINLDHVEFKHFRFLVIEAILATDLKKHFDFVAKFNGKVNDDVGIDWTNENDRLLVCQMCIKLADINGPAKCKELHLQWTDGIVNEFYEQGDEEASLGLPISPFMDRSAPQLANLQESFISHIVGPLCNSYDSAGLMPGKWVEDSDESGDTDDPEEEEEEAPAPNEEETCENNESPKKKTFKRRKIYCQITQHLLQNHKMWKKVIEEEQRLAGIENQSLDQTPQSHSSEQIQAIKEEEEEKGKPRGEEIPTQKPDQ
The series is described as follows: PDE3 inhibitory activity test (scintillation proximity assay). The note with it: PDE3 isolated from human platelets. It is filed as biochemical. An excerpt:
(§1) The PDE5 and PDE3 were isolated form human platelets, while the PDE6 was isolated form bovine retinas. The enzyme inhibitory activity test conducted immediately after the enzymes had been isolated, using a scintillation proximity assay for the direct detection of AMP/GMP by the TRKQ7100 and TRKQ7090 kit. In summary, the effect of PDE inhibitors was investigated by assaying a fixed amount of enzyme in the presence of varying inhibitor concentrations and low substrate. The final assay volume was made up to 100 μl with 10 μl assay buffer (50 mM Tris/HCl PH 7.5, 8.3 mM MgCl2, 1.7 mM EGTA), and water. Reactions were initiated with enzyme, incubate for 30 minutes at 30° C. and terminated with 50 μl yttrium silicate SPA beads suspension containing zinc sulphate. Shook for 20 minutes and settled for 30 minutes in the dark, then counted on a BECKMAN LS6500 MULTI-PURPOSE SCINTILLATION COUNTER. The IC50 value for the compounds according the present invention was calculated according the counts.
PDE3 is a PDE isozyme distributed mainly in heart, so the inhibiting of PDE3 may lead to side effects associated with heart. Accordingly, the inhibitory activities of some example compounds according to the invention against PDE3 were determined.
In general terms: In a scintillation proximity assay essentially only radioactivity close to the scintillant gives light.

In series [1] the target is T2, PDE5 from human platelets (Homo sapiens, UniProt O76074).
T2 construct: from tissue; host or cells: human platelets
The series is described as follows: PDE5 inhibitory activity test (scintillation proximity assay). It is filed as biochemical.

A further series deals with T3, PDE6 from bovine retina (Bos taurus, UniProt P11541+P23439).
T3 construct: the PDE6 was isolated form bovine retinas; from tissue; host or cells: bovine retina
T3 sequence (P11541 2-856 limits assumed): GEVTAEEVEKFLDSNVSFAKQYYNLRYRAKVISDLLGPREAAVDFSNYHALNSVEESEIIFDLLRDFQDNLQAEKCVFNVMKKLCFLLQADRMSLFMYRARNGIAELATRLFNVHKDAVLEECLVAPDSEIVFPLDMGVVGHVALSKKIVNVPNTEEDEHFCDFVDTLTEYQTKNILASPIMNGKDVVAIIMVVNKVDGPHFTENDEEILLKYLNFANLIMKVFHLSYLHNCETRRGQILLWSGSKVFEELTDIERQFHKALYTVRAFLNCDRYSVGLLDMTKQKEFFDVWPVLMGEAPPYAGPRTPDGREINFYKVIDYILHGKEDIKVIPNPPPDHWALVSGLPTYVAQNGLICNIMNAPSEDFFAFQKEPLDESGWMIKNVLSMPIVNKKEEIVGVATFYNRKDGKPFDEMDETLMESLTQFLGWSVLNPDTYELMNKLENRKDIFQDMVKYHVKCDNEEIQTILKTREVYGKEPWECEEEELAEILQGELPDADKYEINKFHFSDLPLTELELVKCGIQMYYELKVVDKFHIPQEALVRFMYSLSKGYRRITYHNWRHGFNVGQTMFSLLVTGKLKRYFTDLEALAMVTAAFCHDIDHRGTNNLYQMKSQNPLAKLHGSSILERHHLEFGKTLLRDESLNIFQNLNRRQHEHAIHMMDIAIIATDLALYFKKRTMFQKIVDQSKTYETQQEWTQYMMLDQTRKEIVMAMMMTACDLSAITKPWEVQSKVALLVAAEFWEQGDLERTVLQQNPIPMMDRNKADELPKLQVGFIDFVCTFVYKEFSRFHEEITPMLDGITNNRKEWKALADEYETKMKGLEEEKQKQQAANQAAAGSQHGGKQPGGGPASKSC
T3 sequence (P23439 2-850 limits assumed): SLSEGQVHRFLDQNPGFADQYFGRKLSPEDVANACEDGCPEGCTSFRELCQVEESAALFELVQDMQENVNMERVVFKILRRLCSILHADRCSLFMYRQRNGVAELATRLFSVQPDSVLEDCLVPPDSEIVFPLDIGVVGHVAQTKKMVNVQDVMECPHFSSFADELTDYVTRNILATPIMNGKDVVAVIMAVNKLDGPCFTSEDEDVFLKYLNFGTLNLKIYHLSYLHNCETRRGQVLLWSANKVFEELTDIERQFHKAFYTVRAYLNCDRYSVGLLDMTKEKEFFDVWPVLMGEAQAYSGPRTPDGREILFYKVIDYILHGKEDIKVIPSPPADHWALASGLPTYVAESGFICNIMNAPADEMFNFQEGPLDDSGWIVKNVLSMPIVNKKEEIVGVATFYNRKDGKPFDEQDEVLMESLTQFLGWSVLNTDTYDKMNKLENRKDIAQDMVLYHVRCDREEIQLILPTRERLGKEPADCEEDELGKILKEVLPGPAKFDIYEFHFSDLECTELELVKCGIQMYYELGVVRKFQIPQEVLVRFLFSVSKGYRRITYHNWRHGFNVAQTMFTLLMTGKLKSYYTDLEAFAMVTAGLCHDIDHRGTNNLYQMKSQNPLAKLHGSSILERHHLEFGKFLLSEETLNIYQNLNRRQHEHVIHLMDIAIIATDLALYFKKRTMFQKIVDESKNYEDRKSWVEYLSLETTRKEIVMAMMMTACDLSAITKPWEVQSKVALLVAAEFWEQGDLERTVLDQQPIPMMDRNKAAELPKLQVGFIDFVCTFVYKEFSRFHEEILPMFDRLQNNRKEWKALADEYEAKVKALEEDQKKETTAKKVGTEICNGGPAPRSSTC
The series can be described thus: PDE6 inhibitory activity test (scintillation proximity assay). It is filed as biochemical. The note with it: for IC50: PDE6 from bovine retina; for PDE6 IC50/PDE5 IC50: selectivity of PDE5 versus PDE6.
Source text: as §1

The subject of the next series is male KM mouse. The series is described as follows: Acute oral toxicity test. It is filed as in vivo. The note with it: single oral dose of 3 g/kg, 10 or 11 mice per group. As for the experimental part:
In this test male KM mouse weighting 18-22 g were used, and 10 or 11 mouse were assigned randomly to each group. […] The animals were fasted for 12 hours before the administration.

[2] abbreviates: PDE5 in the PDE6 selectivity table.

SMILES strings stand for the structures.

The IC50 is the point on the concentration scale where inhibition reaches its midpoint. As to `CCCOc1ccc(S(=O)(=O)N(C)CCOC(C)=O)cc1-c1nc2c(CCC)nn(C)c2c(=O)[nH]1` [Example 33, 1-methyl-5-{2-propoxy-5-[[1-methyl-1-(2-acetoxyethyl)]amidosulfonyl]phenyl}-3-n-propyl-1,6-dihydro-7H-pyrazolo[4,3-d]pyrimidin-7-one], the ICP/BP in the series with rat corpora cavernosa worked out at 72.3 ± 28.6. Further, on PDE3, the concentration for half-maximal inhibition (IC50) is 30400 nM.
Take `CCCOc1ccc(S(=O)(=O)N(CC)CCN2CCOCC2)cc1-c1nc2c(CC)nn(C)c2c(=O)[nH]1` [Example 54, 1-methyl-5-{2-propoxy-5-[[1-ethyl-1-(2-morpholin-1-yl)ethyl]amidosulfonyl]phenyl}-3-ethyl-1,6-dihydro-7H-pyrazolo[4,3-d]pyrimidin-7-one]: the ICP/BP in the series with rat corpora cavernosa is on record as 86.3 ± 6.4. Besides, the concentration for half-maximal inhibition (IC50) in series [1] (PDE5 from human platelets) turned out to be 9.81 nM; in series [1] (setting [2]) it was 9.81 nM; on PDE6 from bovine retina, 235 nM; against PDE3, 16300 nM. Further, the “PDE6 IC50/PDE5 IC50” value at PDE6 from bovine retina is given as 23.9. In addition, the Number of death in the series with male KM mouse is given as 0. Further, the mortality rate in the series with male KM mouse is given as 0%.
For `CCCOc1ccc(S(=O)(=O)N(CCN2CCOCC2)Cc2cccnc2)cc1-c1nc2c(CCC)nn(C)c2c(=O)[nH]1` [Example 62, 1-methyl-5-{2-propoxy-5-[[1-(3-pyridylmethyl)-1-(2-morpholin-1-yl)ethyl]amidosulfonyl]phenyl}-3-n-propyl-1,6-dihydro-7H-pyrazolo[4,3-d]pyrimidin-7-one], the ICP/BP in the series on rat corpora cavernosa is 69.8 ± 12.2. Further, on PDE3, 2860 nM corresponded to half-maximal inhibition (IC50). In the series on male KM mouse, this compound displayed a Number of death of 6 and a mortality rate of 60%.
For the compound `CCCOc1ccc(S(=O)(=O)N(CCN2CCCC2)Cc2cccnc2)cc1-c1nc2c(CCC)nn(C)c2c(=O)[nH]1` [Example 89, 1-methyl-5-{2-propoxy-5-[[1-(3-pyridylmethyl)-1-(2-pyrrolidin-1-yl)ethyl]amidosulfonyl]phenyl}-3-n-propyl-1,6-dihydro-7H-pyrazolo[4,3-d]pyrimidin-7-one], the ICP/BP with rat corpora cavernosa came to 70.9 ± 9.8. The same compound registered a half-maximal inhibitory concentration (IC50) in series [1] (PDE5 from human platelets) of 7.85 nM. Besides, the IC50 in series [1] (setting [2]) was determined as 7.85 nM. Further, at PDE6 from bovine retina, the IC50 was found to be 215 nM and the “PDE6 IC50/PDE5 IC50” value is listed as 27.4. In addition, in the series with male KM mouse, the Number of death was determined as 5 and the mortality rate was found to be 45%.
For the compound `CCCOc1ccc(S(=O)(=O)N(CCCO)CCCOC(C)=O)cc1-c1nc2c(CCC)nn(C)c2c(=O)[nH]1` [Example 92, 1-methyl-5-{2-propoxy-5-[[1-(3-acetoxypropyl)-1-(3-hydroxypropyl)]amidosulfonyl]phenyl}-3-n-propyl-1,6-dihydro-7H-pyrazolol[4,3-d]pyrimidin-7-one], the ICP/BP in the series with rat corpora cavernosa was 86.4 ± 4.8. The IC50 in series [1] (PDE5 from human platelets) stood at 3.85 nM; in series [1] (setting [2]), 3.85 nM; at PDE6 from bovine retina it was 254 nM; against PDE3 it was 10500 nM. Besides, the “PDE6 IC50/PDE5 IC50” value on PDE6 from bovine retina turned out to be 66.0. The same compound had a Number of death in the series with male KM mouse of 0. Also, in the series with male KM mouse, the mortality rate is 0%.
For `CCCOc1ccc(S(=O)(=O)N(CCCOC(C)=O)CCCOC(C)=O)cc1-c1nc2c(CCC)nn(C)c2c(=O)[nH]1` [Example 93, 1-methyl-5-{2-propoxy-5-[bis(3-acetoxypropyl)amidosulfonyl]phenyl}-3-n-propyl-1,6-dihydro-7H-pyrazolo[4,3-d]pyrimidin-7-one], the ICP/BP with rat corpora cavernosa is 77.2 ± 24.8. Also, the half-maximal inhibitory concentration (IC50) in series [1] (PDE5 from human platelets) came to 3.8 nM; at PDE3 it was 6000 nM. In the series on male KM mouse, this compound came in with a Number of death of 0. The same compound returned a mortality rate in the series on male KM mouse of 0%.
On to `CCCOc1ccc(S(=O)(=O)N(CCOC(C)=O)CCN2CCOCC2)cc1-c1nc2c(CCC)nn(C)c2c(=O)[nH]1` [Example 96, 1-methyl-5-{2-propoxy-5-[[1-(2-acetoxyethyl)-1-(2-morpholin-1-yl)ethyl]amidosulfonyl]phenyl}-3-n-propyl-1,6-dihydro-7H-pyrazolo[4,3-d]pyrimidin-7-one], for which, in the series on rat corpora cavernosa, the ICP/BP was 81.0 ± 9.5. The IC50 in series [1] (PDE5 from human platelets) came to 4.24 nM; in series [1] (setting [2]) it was 4.24 nM; against PDE6 from bovine retina it was 244 nM; against PDE3, 12400 nM. In addition, on PDE6 from bovine retina, the “PDE6 IC50/PDE5 IC50” value is reported as 57.7. The same compound returned a Number of death in the series on male KM mouse of 0. This compound registered a mortality rate in the series with male KM mouse of 0%.
For `CCCOc1ccc(S(=O)(=O)N(CC)CCCOC(C)=O)cc1-c1nc2c(CCC)nn(C)c2c(=O)[nH]1` [Example 97, 1-methyl-5-{2-propoxy-5-[[1-ethyl-1-(3-acetoxypropyl)]amidosulfonyl]phenyl}-3-n-propyl-1,6-dihydro-7H-pyrazolo[4,3-d]pyrimidin-7-one], the ICP/BP in the series with rat corpora cavernosa is on record as 72.0 ± 13.5. The same compound returned a 50% inhibitory concentration (IC50) in series [1] (PDE5 from human platelets) of 13.1 nM. The compound further gave an IC50 against PDE3 of 5120 nM. In the series on male KM mouse, this compound had a Number of death of 5 and a mortality rate of 45%.
On the same counts, the results for `CCCOc1ccc(S(=O)(=O)N(CCOCC)CCN2CCOCC2)cc1-c1nc2c(CCC)nn(C)c2c(=O)[nH]1` [Example 111, 1-methyl-5-{2-propoxy-5-[[1-(2-ethoxyethyl)-1-(2-morpholin-1-yl)ethyl]amidosulfonyl]phenyl}-3-n-propyl-1,6-dihydro-7H-pyrazolo[4,3-d]pyrimidin-7-one] are 89.1 ± 6.9, 6.83 nM, 8730 nM, 0 and 0%.

These data come from patent US20080318949A1, “Pyrazolopyrimidinone Derivatives, Their Preparation And Their Use” (Topharman Shanghai Co., Ltd, priority 2005, published 2008).
